PubChem BioAssay AID248 (DTP/NCI, 2004)
“And” between values parts separate entries of the source, which are not always exact repeats. Equal entries are not always repeated. Inconclusive results and toxic doses are left out. Cut-off read from the data, not from the text of the source: active = T/C of 150% or more; inactive = T/C below 125%.

Tested on: L1210 leukemia ip in BDF1 mice, survival T/C
Assay: NCI In Vivo Anticancer Drug Screen. Data for tumor model L1210 Leukemia (intraperitoneal) in B6D2F1 (BDF1) mice
Settings: endpoint: mean survival time, higher = longer survival
How it was run: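 Ratio derived from survival: compound-dosed mice over vehicle-dosed mice, all bearing a transplantable tumor.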

[1] = dose: 100.0 mg/kg/injection, schedule: Q04DX002 (ip), vehicle: saline
[2] = dose: 200.0 mg/kg/injection, schedule: Q04DX002 (ip), vehicle: saline
[3] = dose: 400.0 mg/kg/injection, schedule: Q04DX002 (ip), vehicle: saline
[4] = dose: 100.0 mg/kg/injection, schedule: Q04DX002 (ip), vehicle: Klucel (hydroxypropylcellulose) (HPC)
[5] = dose: 200.0 mg/kg/injection, schedule: Q04DX002 (ip), vehicle: Klucel (hydroxypropylcellulose) (HPC)
[6] = dose: 400.0 mg/kg/injection, schedule: Q04DX002 (ip), vehicle: Klucel (hydroxypropylcellulose) (HPC)
[7] = dose: 100.0 mg/kg/injection, schedule: Q01DX001 (ip), vehicle: saline with Tween-80
[8] = dose: 200.0 mg/kg/injection, schedule: Q01DX001 (ip), vehicle: saline with Tween-80
[9] = dose: 400.0 mg/kg/injection, schedule: Q01DX001 (ip), vehicle: saline with Tween-80
[10] = dose: 100.0 mg/kg/injection, schedule: Q04DX003 (ip), vehicle: saline with Tween-80
[11] = dose: 200.0 mg/kg/injection, schedule: Q04DX003 (ip), vehicle: saline with Tween-80
[12] = dose: 400.0 mg/kg/injection, schedule: Q04DX003 (ip), vehicle: saline with Tween-80
[13] = dose: 100.0 mg/kg/injection, schedule: Q01DX001 (ip), vehicle: other
[14] = dose: 200.0 mg/kg/injection, schedule: Q01DX001 (ip), vehicle: other
[15] = dose: 400.0 mg/kg/injection, schedule: Q01DX001 (ip), vehicle: other
[16] = dose: 100.0 mg/kg/injection, schedule: Q01DX001 (ip), vehicle: saline
[17] = dose: 200.0 mg/kg/injection, schedule: Q01DX001 (ip), vehicle: saline
[18] = dose: 400.0 mg/kg/injection, schedule: Q01DX001 (ip), vehicle: saline
[19] = dose: 100.0 mg/kg/injection, schedule: Q01DX009 (ip), vehicle: Klucel (hydroxypropylcellulose) (HPC)
[20] = dose: 100.0 mg/kg/injection, schedule: Q04DX003 (ip), vehicle: Klucel (hydroxypropylcellulose) (HPC)
[21] = dose: 200.0 mg/kg/injection, schedule: Q01DX009 (ip), vehicle: Klucel (hydroxypropylcellulose) (HPC)
[22] = dose: 200.0 mg/kg/injection, schedule: Q04DX003 (ip), vehicle: Klucel (hydroxypropylcellulose) (HPC)
[23] = dose: 400.0 mg/kg/injection, schedule: Q04DX003 (ip), vehicle: Klucel (hydroxypropylcellulose) (HPC)
[24] = dose: 100.0 mg/kg/injection, schedule: Q04DX003 (ip), vehicle: saline

Measured: T/C

CNC(=O)NC1C(CO)OC2OC(C)(C)OC21 (stereo unspecified)
inactive: [1] 100 % of control | [2] 97 % of control | [3] 94 % of control

NC(CCCC(N)C(=O)O)C(=O)O (stereo unspecified)
inactive: dose: 12.5 mg/kg/injection, schedule: Q04DX002 (ip), vehicle: saline 103 % of control | dose: 25.0 mg/kg/injection, schedule: Q04DX002 (ip), vehicle: saline 100 % of control | dose: 50.0 mg/kg/injection, schedule: Q04DX002 (ip), vehicle: Klucel (hydroxypropylcellulose) (HPC) 96 % of control | dose: 50.0 mg/kg/injection, schedule: Q04DX002 (ip), vehicle: saline 93 % of control | [4] 101 % of control | [5] 93 % of control

CO/N=C(/CSS(=O)(=O)O)c1ccccc1
inactive: [4] 96 % of control | [5] 96 % of control | [6] 96 % of control

OCCCOc1ccccc1
inactive: [7] 103 % of control | [8] 97 % of control | [9] 100 % of control

C=CC(=O)NC(C)C
inactive: [10] 102 % of control | [11] 104 % of control | [12] 86 % of control

C=C(C)C#CC(O)(C(=O)OCC)C1CCCC1 (stereo unspecified)
inactive: [13] 100 % of control | [14] 93 % of control | [15] 93 % of control

ICC1OC(c2ccccc2)OC2C(CI)OC(c3ccccc3)OC12 (stereo unspecified)
inactive: dose: 75.0 mg/kg/injection, schedule: Q01DX001 (ip), vehicle: carboxymethylcellulose (CMC) 95 % of control | dose: 150.0 mg/kg/injection, schedule: Q01DX001 (ip), vehicle: carboxymethylcellulose (CMC) 93 % of control | dose: 300.0 mg/kg/injection, schedule: Q01DX001 (ip), vehicle: carboxymethylcellulose (CMC) 88 % of control

O=[N+]([O-])c1ccc(S(=O)(=O)Cl)c(Cl)c1
inactive: [16] 100 % of control | [17] 96 % of control | [18] 92 % of control

CN1CCCC(CC2c3ccccc3Sc3ccccc32)C1 (stereo unspecified)
inactive: dose: 2.0 mg/kg/injection, schedule: Q01DX015 (ip), vehicle: carboxymethylcellulose (CMC) 108 % of control | dose: 4.0 mg/kg/injection, schedule: Q01DX015 (ip), vehicle: carboxymethylcellulose (CMC) 98 % of control | dose: 8.0 mg/kg/injection, schedule: Q01DX015 (ip), vehicle: carboxymethylcellulose (CMC) 97 % of control | dose: 16.0 mg/kg/injection, schedule: Q01DX015 (ip), vehicle: carboxymethylcellulose (CMC) 91 % of control | dose: 32.0 mg/kg/injection, schedule: Q01DX015 (ip), vehicle: carboxymethylcellulose (CMC) 92 % of control

N#CCN1C(=O)c2ccccc2S1(=O)=O
inactive: dose: 222.0 mg/kg/injection, schedule: Q01DX Z (ip), vehicle: methylcellulose (MC) 110 % of control | dose: 333.0 mg/kg/injection, schedule: Q01DX Z (ip), vehicle: methylcellulose (MC) 113 % of control | dose: 500.0 mg/kg/injection, schedule: Q01DX Z (ip), vehicle: methylcellulose (MC) 102 % of control

C=CCCCCCCCCO
inactive: dose: 50.0 mg/kg/injection, schedule: Q01DX001 (ip), vehicle: saline 98 % of control | [16] 95 % of control | [17] 95 % of control

Cc1cccc(NC(=O)Nc2cc(C)on2)c1
inactive: dose: 100.0 mg/kg/injection, schedule: Q01DX001 (ip), vehicle: Klucel (hydroxypropylcellulose) (HPC) 100 % of control | [19] 91 % of control | [4] 98 % of control and 102 % of control | [20] 92 % of control | dose: 200.0 mg/kg/injection, schedule: Q01DX001 (ip), vehicle: Klucel (hydroxypropylcellulose) (HPC) 95 % of control | [21] 94 % of control and 91 % of control | [5] 94 % of control and 98 % of control | [22] 93 % of control | dose: 400.0 mg/kg/injection, schedule: Q01DX001 (ip), vehicle: Klucel (hydroxypropylcellulose) (HPC) 95 % of control | dose: 400.0 mg/kg/injection, schedule: Q01DX009 (ip), vehicle: Klucel (hydroxypropylcellulose) (HPC) 100 % of control and 91 % of control | [6] 98 % of control and 109 % of control | [23] 93 % of control

Cc1cc(=O)[nH]c(N/N=C/c2ccccc2)n1
inactive: dose: 100.0 mg/kg/injection, schedule: Q01DX009 (ip), vehicle: gum acacia 88 % of control | dose: 100.0 mg/kg/injection, schedule: Q04DX003 (ip), vehicle: gum acacia 93 % of control | dose: 200.0 mg/kg/injection, schedule: Q04DX003 (ip), vehicle: gum acacia 97 % of control | dose: 400.0 mg/kg/injection, schedule: Q01DX009 (ip), vehicle: gum acacia 91 % of control | dose: 400.0 mg/kg/injection, schedule: Q04DX003 (ip), vehicle: gum acacia 93 % of control

Cc1ccc([As](=O)(O)O)cc1F
inactive: dose: 1.56 mg/kg/injection, schedule: Q01DX009 (ip), vehicle: Klucel (hydroxypropylcellulose) (HPC) 94 % of control | dose: 3.13 mg/kg/injection, schedule: Q01DX009 (ip), vehicle: Klucel (hydroxypropylcellulose) (HPC) 94 % of control | dose: 6.25 mg/kg/injection, schedule: Q01DX009 (ip), vehicle: Klucel (hydroxypropylcellulose) (HPC) 88 % of control

O=[N+]([O-])c1ccccc1N=Nc1c(O)[nH]c2ccc(Cl)cc12
inactive: [16] 95 % of control | [18] 92 % of control

COc1ccc2c(C(=O)O)c(C(=O)c3ccccc3)ccc2c1OC
inactive: dose: 100.0 mg/kg/injection, schedule: Q01DX001 (ip), vehicle: gum acacia 98 % of control | dose: 200.0 mg/kg/injection, schedule: Q01DX001 (ip), vehicle: gum acacia 98 % of control | dose: 400.0 mg/kg/injection, schedule: Q01DX001 (ip), vehicle: gum acacia 94 % of control

C1=Cc2ccccc2C(c2ccccc2)S1 (stereo unspecified)
inactive: [1] 103 % of control | [2] 98 % of control | [3] 103 % of control

O=C(CN1CCCCC1Cl)c1ccccc1 (stereo unspecified)
inactive: [16] 105 % of control | [24] 100 % of control

CCCCCC/C(C)=N/O
inactive: dose: 100.0 mg/kg/injection, schedule: Q01DX009 (ip), vehicle: saline with Tween-80 94 % of control | [10] 106 % of control | dose: 200.0 mg/kg/injection, schedule: Q01DX009 (ip), vehicle: saline with Tween-80 103 % of control | [11] 95 % of control | [12] 98 % of control

CN(C)c1ccc(N=Cc2ccccc2O)cc1.[Co]
inactive: [13] 90 % of control | [14] 94 % of control | [15] 91 % of control

COC(=O)c1cc([N+](=O)[O-])cc2ccccc12
inactive: [19] 99 % of control | [20] 105 % of control | [21] 96 % of control | [22] 94 % of control | [23] 97 % of control

C[n+]1cccc(C(=O)N/N=C/c2ccccc2)c1
inactive: [7] 96 % of control | [8] 96 % of control | [9] 96 % of control

CCCCCCCCCCCCCCNC1=C(C)C(=O)C(NCCCCCCCCCCCCCC)=C(C)C1=O
inactive: dose: 100.0 mg/kg/injection, schedule: Q01DX001 (ip), vehicle: carboxymethylcellulose (CMC) 98 % of control | dose: 200.0 mg/kg/injection, schedule: Q01DX001 (ip), vehicle: carboxymethylcellulose (CMC) 93 % of control | dose: 400.0 mg/kg/injection, schedule: Q01DX001 (ip), vehicle: carboxymethylcellulose (CMC) 89 % of control

C=C(C)CN
inactive: dose: 50.0 mg/kg/injection, schedule: Q01DX009 (ip), vehicle: saline 109 % of control | dose: 100.0 mg/kg/injection, schedule: Q01DX009 (ip), vehicle: saline 117 % of control | [24] 93 % of control | dose: 200.0 mg/kg/injection, schedule: Q04DX003 (ip), vehicle: saline 106 % of control
